The NIST ThermoML archive (doi:10.1021/je8003468)

Conditions: Ring tensiometer

CO [methanol]
Conditions | surface tension liquid-gas [mN/m]
279.11 K | 23.87
282.59 K | 23.63
288.3 K | 23.14
293.37 K | 22.73
296.97 K | 22.43
301.54 K | 21.99
307.31 K | 21.43
311.76 K | 21
317.66 K | 20.43
322.9 K | 19.83
326.56 K | 19.42
330.01 K | 19.09
333.81 K | 18.63
